These are literature values, as cited in patent publication US7834258B2, “Dimer of chimeric recombinant binding domain-functional group fusion formed via disulfide-bond-bridge and the processes for producing the same” (priority 2003, dated 2010).

The data set concerns H2981 human lung adenocarcinoma cells.

Molecules are shown by their SMILES.

In the case of `Nc1nc(=O)[nH]cc1F` [5-FC, 5-Fluorocytosine], the cytotoxicity result (H2981 cells, 200 uM concentration) is on record as “no effect”.
As to `O=c1[nH]cc(F)c(=O)[nH]1` [5-FU, 5-Fluorouracil], the IC50 (H2981 human lung adenocarcinoma cells, read-out: ID50 (the source's name)) was 20 µM.
